Data from US11857592B2, “Polygala extract for the treatment of attention-deficit hyperactivity disorder” (BioLite, Inc., priority 2020, dated 2024).

System: ICR male mice
Assay: In vivo tetrabenazine-induced hypothermia assay
Details: for activity discovered through in vivo tetrabenazine-induced hypothermia test: antidepressant-like activity in mice; for temperature recovery of TBZ-induced hypothermic response: oral gavage 60 min before TBZ 85 mg/kg i.p., 120 min after TBZ challenge
Source text: The around 70% of PDC-1421 in Example 1 are composed of sucroester (34%), saponin (18%) and xanthone (17%). Some active compounds of in the powder product of Example 1, including polygalatenosides A/B/C (2nd fraction 1), ploygalaxanthone III, sibiricoses A5, and 7-O-methylmangiferin are also discovered through in vivo tetrabenazine-induced hypothermia test (one of rodent models for evaluating antidepressant-like activity in mice). Imipramine (as the positive control), PDC-1421, 1st Fraction 10-19, 1st Fraction 33, 2nd Fraction-1 (wherein the major components are polygalatenosides A/B/C), 2nd Fraction-3, TMCA, Polygalaxanthone III, Onjisaponin B, Sibiricose A5, 7-O-Methylmangiferin and Sibiricaxanthone B are dissolved in water for injection (WFI) and administered by oral gavage. The dosing volume is 10 mL/kg. Test substances and vehicle (WFI) are administered by oral gavage to groups of 8 ICR male mice weighing 23±3 g for 60 minutes, and then tetrabenazine (TBZ, 85 mg/kg) is injected intraperitoneally. Body temperature is recorded before (0 min), and 60, 90 and 120 min after TBZ challenge. Therefore, drug-induced hypothermia (e.g., TBZ and reserpine) animal model is a typical experiment to evaluate the activity of NRI on depression. Temperature recovery of TBZ-induced hypothermic response is considered as indication of a anti-depressant activity.

Row | SMILES | activity discovered through in vivo tetrabenazine-induced hypothermia test | temperature recovery of TBZ-induced hypothermic response
1 | COc1cc2c(=O)c3c(O)c([C@@H]4O[C@H](CO)[C@@H](O)[C@H](O)[C@H]4O)c(O)cc3oc2cc1O [7-O-Methylmangiferin] | active | had a temperature recovery
2 | COc1cc2c(=O)c3c(O)c([C@@H]4O[C@H](CO[C@@H]5OC[C@](O)(CO)[C@H]5O)[C@@H](O)[C@H](O)[C@H]4O)c(O)cc3oc2cc1O [Polygalaxanthone III] | active | had a temperature recovery
3 | COc1cc(/C=C/C(=O)O[C@H]2[C@H](O)[C@@H](CO)O[C@@]2(CO)O[C@H]2O[C@H](CO)[C@@H](O)[C@H](O)[C@H]2O)ccc1O [Sibiricoses A5, Sibiricose A5] | active | had a temperature recovery
